# Results: publication PMC5696490, “Modelling foetal exposure to maternal smoking using hepatoblasts from pluripotent stem cells” (Archives of Toxicology, 2017)
# How the values were obtained:
# [1] = tested on: Caspase 3/7; test: Caspase 3/7 activity (pGlo) in donor one hESC-derived hepatocytes; format: cell-based, human; details: concentration of peak caspase 3/7 activity, 8 days exposure
# Description: (§1) H9 and Man12 human embryonic stem cells (hESCs) identity was confirmed using short tandem repeat typing. hESCs were cultured and differentiated as previously described (Cameron et al. [2015]). Maintenance of hESCs was performed on pre-coated laminin 521 (Biolaminin) in mTeSR1 ([…] Technologies) in a humidified 37 °C, 5% CO2 incubator. For differentiation, hESCs were plated onto a pre-coated blend of laminins 521 and 111 (at a 1:3 ratio). Differentiation was initiated at 40% confluence by replacing serum-free medium with endoderm differentiation medium: RPMI 1640 containing 1× B27 (Life Technologies), 100 ng/mL Activin A (PeproTech), and 50 ng/mL Wnt3a (R&D Systems). The medium was changed every 24 h for 72 h. On day 3, endoderm differentiation medium was replaced with hepatoblast differentiation medium, and this was renewed every second day for a further 5 days. The medium consisted of knockout (KO)-DMEM (Life Technologies), Serum replacement (Life Technologies), 0.5% Glutamax (Life Technologies), 1% non-essential amino acids (Life Technologies), 0.2% β-mercaptoethanol (Life Technologies), and 1% DMSO (Sigma). On day 8, differentiating cells were cultured in the hepatocyte maturation medium HepatoZYME (Life Technologies) containing 1% Glutamax (Life Technologies), supplemented with 10 ng/mL hepatocyte growth factor (PeproTech) and 20 ng/mL oncostatin M (PeproTech). On day 10 maturation medium was replaced with HepatoZYME supplemented with and without smoking derivatives (Sigma-Aldrich) for a further 8 days, with media replaced every 48 h.
# (§2) Cell health was assessed measuring ATP production and Caspase 3/7 activity at Day 18 employing pGlo technology (Promega) in accordance with the manufacturer’s instructions. Levels of expression of both markers were expressed as percentage of relative light units (RLUs) per milliliter of medium and normalised to the vehicle control. Levels of significance were measured by Student’s t test. The experiments are representative of five biological replicates.
# (§3) Hepatocyte specification and maturation was performed in male and female hESCs lines in the presence or absence to smoking components. Cotinine at a concentration range of 1 to 300 nM, chrysene at a concentration range of 10 nM to 50 μM, fluorene at a concentration range of 10 nM to 100 μM, naphthalene at a concentration range of 10nm to 1 mM and phenanthrene, at a concentration range of 10 nM to 500 μM were used. Following 8 days exposure, cell health was determined by ATP production and caspase activity. Following this cell function was determined measuring CYP P450 3A and 1A2 activity. In order to measure the effectiveness of each component of cigarette smoke to inhibiting activity we used the half maximal inhibitory concentration (IC50).
# [2] = tested on: CYP3A; test: CYP3A activity (pGlo) in donor two hESC-derived hepatocytes; details: human two
# Description: as §1
# CYP3A and CYP1A2 activity was measured in hepatocytes at Day 18 using pGlo technology (Promega) in accordance with the manufacturer’s instructions. CYP activity was expressed as either relative light units (RLUs) per milliliter of medium per milligram of protein (determined by the BCA assay, Pierce), or as a percentage of CYP activity normalised to the vehicle control. Levels of significance were measured by Student’s t test. The experiments are representative of five biological replicates.
# as §3
# [3] = tested on: Caspase 3/7; test: Caspase 3/7 activity (pGlo) in donor two hESC-derived hepatocytes; format: cell-based, human; details: concentration of peak caspase 3/7 activity, 8 days exposure
# Description: as §1, §2, §3
# [4] = target: T1, CYP1A2 (Homo sapiens, UniProt P05177); test: CYP1A2 activity (pGlo) in donor one hESC-derived hepatocytes; format: cell-based; details: female hepatocytes, 8 days exposure
# T1 sequence (P05177 2-516): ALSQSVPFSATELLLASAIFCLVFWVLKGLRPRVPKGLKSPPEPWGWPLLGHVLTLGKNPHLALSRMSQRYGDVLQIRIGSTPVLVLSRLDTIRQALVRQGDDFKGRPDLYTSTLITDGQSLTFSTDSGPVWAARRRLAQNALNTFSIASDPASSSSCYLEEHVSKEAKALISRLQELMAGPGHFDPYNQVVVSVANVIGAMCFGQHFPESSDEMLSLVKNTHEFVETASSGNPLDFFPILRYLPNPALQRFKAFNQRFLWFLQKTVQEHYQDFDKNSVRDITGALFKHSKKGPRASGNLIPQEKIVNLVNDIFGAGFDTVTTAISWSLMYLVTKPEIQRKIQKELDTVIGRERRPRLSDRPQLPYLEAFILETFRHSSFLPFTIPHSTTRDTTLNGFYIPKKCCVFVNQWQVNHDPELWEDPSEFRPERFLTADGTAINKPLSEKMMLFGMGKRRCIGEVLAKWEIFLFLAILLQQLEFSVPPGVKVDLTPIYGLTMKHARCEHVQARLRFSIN
# Source text: The experiments are representative of five biological replicates.
SMILES,Caspase 3/7 peak activity Female [1] [µM],IC50 at 8 days [2] [µM],Caspase 3/7 peak activity Male [3] [µM],IC50 CYP1A2 person one [4],IC50 CYP1A2 person one ([4]; listed as naphthalene)
CN1C(=O)CC[C@H]1c1cccnc1 [Cotinine],0.1,0.05,0.1,,
c1ccc2ccccc2c1 [Naphthalene],50,68,1000,Induced activity,induced CYP1A2 activity
c1ccc2c(c1)ccc1c3ccccc3ccc21 [Chrysene],25,10,5,,
c1ccc2c(c1)Cc1ccccc1-2 [Fluorene],>100,25,100,,
c1ccc2c(c1)ccc1ccccc12 [Phenanthrene],>500,58,10,,
